Assay results published in patent US20230172951A1, “METHODS OF USING BILE ACIDS TO TREAT VIRAL INFECTIONS” (HOFFMAN TECHNOLOGIES LLC, priority 2020, published 2023).

What was measured:
[1] = system: SARS-CoV-2 (USA-WA1/2020 strain); assay: SARS-CoV-2 neutralization assay in Vero E6 cells, cytopathic effect (CPE) read-out; format: cell-based; settings: for Inhibition of SARS-CoV-2 infection of Vero cells / Day 2 CPE / Day 4 CPE: 1.25 mg/mL; for Inhibition of SARS-CoV-2 infection of Vero cells: dosed simultaneously with viral addition to cells; for EC50 (inhibition of SARS-CoV-2 CPE): Vero E6 cells, calculated by the Quest Graph EC50 Calculator (AAT Bioquest); for Day 2 CPE / Day 4 CPE: five replicate wells; for Day 2 CPE: Day 2 post-infection; for Day 4 CPE: Day 4 post-infection
Vero E6 cells = assay: Cytotoxicity / cell growth observed in Vero E6 cells during the neutralization assay; settings: for Cell growth: 1.25 mg/mL, also seen in corresponding DMSO controls (1.25%), attributed to DMSO
SARS-CoV-2 / COVID-19 = format: in vivo; settings: 500 mg capsule, twice per day
[2] = Solubility on dilution of DMSO stock in DMEM/F12; format: physicochemical
Experimental: The Vero E6 cells were plated on 96-well plates the day before the assay and were allowed to grow to ˜60% confluence. All three drugs were reconstituted with DMSO to a concentration of 100 mg/mL. That was further diluted in DMEM/F12 to 5 mg/mL. […] A 1:2 serial dilution series was performed to examine final concentrations of 1.25, 0.625, 0.31, 0.156, 0.078, 0.039, and 0.02 mg/mL. DMSO controls were used to account for DMSO concentrations at 1.25, 0.625, 0.31, 0.156, 0.078, 0.039, and 0.02%. Dilutions were pre-incubated with virus for 60 minutes prior to addition to cells. This was to allow drug to interact with virus prior to virus infection. Additionally, drug and virus were added to Vero cells simultaneously. 45 minutes after virus addition, DMEM/F12+FBS was added to feed the cells. The assay was executed in five replicates for each condition. Test wells received approximately 100 TCID50/well of SARS-CoV-2. Growth of the Vero E6 cells was observed and monitored for cytopathic effects (CPE) associated with successful virus replication. All wells were examined on Day 2 and Day 4 post-infection.

COVID-19 = assay: Subject presenting with COVID-19 symptoms taking TUDCA capsules (Example 3); format: in vivo; settings: 500 mg capsule, twice per day; after several days
Experimental: A subject presenting with COVID-19 symptoms was instructed to administer one gelatin capsule of TUDCA (500 mg, powder in capsule), twice per day.

[3] = pre-incubation with virus for 60 minutes
[4] = simultaneous addition of drug and virus

Row | Compound | Inhibition of SARS-CoV-2 infection of Vero cells [1] | EC50 (inhibition of SARS-CoV-2 CPE) [1] [µg/mL] | Day 2 CPE [1, 3] | Day 2 CPE [1, 4] | Day 4 CPE [1, 4] | Cell growth (Vero E6 cells) | Health outcome of member who tested positive for SARS-CoV-2 with COVID-19 symptoms (SARS-CoV-2 / COVID-19; oral, one member) | COVID-19 symptoms in exposed members (prophylaxis) (SARS-CoV-2 / COVID-19; twelve members, repeated exposure to COVID-19 patients over at least 3 months) | Solubility in DMEM/F12 ([2]; 100 mg/mL DMSO stock diluted in DMEM/F12 to 5 mg/mL) | Solubility in DMEM/F12 ([2]; next 1:2 dilution after 5 mg/mL) | Cytotoxicity in wells (Vero E6 cells; 1.25 and 0.625 mg/mL final concentrations) | Health outcome of subject with COVID-19 symptoms (COVID-19)
1 | C[C@H](CCC(=O)NCCS(=O)(=O)[O-])[C@H]1CC[C@H]2[C@@H]3[C@@H](O)C[C@@H]4C[C@H](O)CC[C@]4(C)[C@H]3CC[C@]12C.[Na+] [Sodium TUDCA] | inhibit SARS-CoV-2 infection of Vero cells | 980 | no CPE | no CPE | no CPE | Slowed cell growth | – | – | – | – | – | –
2 | CC(CCC(=O)NCCS(=O)(=O)O)C1CCC2C3C(O)CC4CC(O)CCC4(C)C3CCC12C (stereo not drawn) [TUDCA acid, tauroursodeoxycholic acid] | inhibit SARS-CoV-2 infection of Vero cells | 980 | no CPE | no CPE | no CPE | Slowed cell growth | – | – | – | – | – | –
3 | CC(CCC(=O)NCCS(=O)(=O)O)C1CCC2C3C(O)CC4CC(O)CCC4(C)C3CCC12C (stereo not drawn) [TUDCA, tauroursodeoxycholic acid] | – | – | – | – | – | – | health returned to normal | None of the other twelve members have presented with COVID-19 symptoms | came out of solution | soluble | Cytotoxicity was seen | health returned to normal
